Key:
Primary Neurons = assay: HCS neurite outgrowth assay (High Content Screening with Primary Neurons); assay type: cell-based
[1] = tested on: corticospinal tract (CST) axons; assay: Unilateral pyramidotomy model, in vivo axon growth (CST axon sprouting); conditions: mice, cortical injection, 2 mM final concentration, 5 weeks after unilateral pyramidotomy, N=2
Source text: B) Graph represents averages of sprouting axon index across two animals treated with indicated compounds. Error bars indicate range of data points. N=2 animals (mice).
To assess the role of the compounds described herein in axon growth in vivo, the unilateral pyramidotomy model was employed, in which the pyramid in the ventral brainstem was severed unilaterally, rostral to the decussation of corticospinal tract (CST) axons. The animals then received bilateral cortical injections of a compound described herein (or DMSO) mixed 1:1 with AAV8-UbC-GFP or AAV8-UbC-TdTomato (5×10^13 GC/mL) for a final concentration of 2 mM (2 animals (mice) for each condition). […] Axon growth in the cervical spinal cord was assessed after 5 weeks. Cervical sections of the spinal cord were stained with antibodies against PKCγ (to assess completeness of lesion), and GFP (to amplify the signal from the virus). For analyses, GFP+ axons sprouting into the denervated gray matter were counted at 0, 500, 1000 μm lateral to the central canal, and normalized to the number of GFP+ fibers at the level of the brainstem (sprouting axon index).

[2] = tested on: neurons from hippocampi of E18 rat embryos; assay: Neurite growth length (% NTL) in cultured E18 rat hippocampal neurons, 9-point dose response, 48 hours; assay type: cell-based
Procedure, shortened: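 % NTL comes from automated neurite tracing of βIII-tubulin-stained cells, with 200–300 or more neurons per condition. Compounds were given in a 9-point dilution series (20 μM to 0.078125 μM) for 48 h. Cells were trypsin-dissociated E18 rat hippocampal neurons plated at 1500/well on poly-D-lysine.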

primary CNS neurons = assay: Neurite outgrowth in primary CNS neurons (FIG. 1, FIG. 2); assay type: cell-based; conditions: FIG. 2, combination of both inhibitors

SMILES: COc1ccc(O)c(C(=O)c2ccc(C(=O)N[C@@H]3CNC[C@H]3NC(=O)c3ccncc3)cc2)c1F [Example A16, N-[(3R,4R)-4-[4-(2-fluoro-6-hydroxy-3-methoxybenzoyl)benzamido]pyrrolidin-3-yl]pyridine-4-carboxamide]
- EC50 (Primary Neurons): 5.5 µM
- CST axon sprouting (sprouting axon index) [1]: nearly a two-fold increase in sprouting
- CST axon sprouting (sprouting axon index) ([1]; listed as A-16): promotes CST axon sprouting in the spinal cord
- neurite growth length (% NTL) ([2]; 156 nM): 117.55 % NTL
- neurite growth length (% NTL) ([2]; 312 nM): 125.17 % NTL
- neurite growth length (% NTL) ([2]; 625 nM): 144.99 % NTL
- neurite growth length (% NTL) ([2]; 1.25 μM): 167.31 % NTL
- neurite growth length (% NTL) ([2]; 2.5 μM): 228.24 % NTL
- neurite growth length (% NTL) ([2]; 5 μM): 403.74 % NTL
- neurite growth length (% NTL) ([2]; 10 μM): 573.73 % NTL
- neurite growth length (% NTL) ([2]; 20 μM): 660.88 % NTL
- activity at 0.078 µM ([2]; Rattus norvegicus, Neuron, 48 h, 78 nM): 117%

SMILES: Cc1cncc2cccc(S(=O)(=O)N3CCCNC[C@@H]3C)c12 [Example H-1152]
- neurite outgrowth, ROCK inhibitor and S6K inhibitor combined (primary CNS neurons): synergistically promotes neurite outgrowth

SMILES: CCc1cncnc1N1CCN(Cc2nc3ccc(C(F)(F)F)cc3[nH]2)CC1 [PF-4708761]
- neurite outgrowth, ROCK inhibitor and S6K inhibitor combined (primary CNS neurons): synergistically promotes neurite outgrowth

— patent publication US11926613B2, “Kinase inhibitors for the treatment of central and peripheral nervous system disorders” (UNIVERSITY OF MIAMI, priority 2017, dated 2024)
